Reference: the NIST ThermoML archive (doi:10.1016/j.jct.2013.09.020)

Conditions: Liquid, Calculated from knudsen effusion weight loss

Cn1cc[n+](C)c1.O=S(=O)([N-]S(=O)(=O)C(F)(F)F)C(F)(F)F [1,3-dimethylimidazolium bis((trifluoromethyl)sulfonyl)amide]
Conditions | vapor or sublimation pressure [kPa]
475.62 K | 4.15e-05
477.6 K | 4.7e-05
479.6 K | 5.33e-05
481.59 K | 6.01e-05
483.59 K | 6.78e-05
485.6 K | 7.63e-05
487.6 K | 8.56e-05
489.62 K | 9.57e-05
491.67 K | 0.0001095
493.68 K | 0.0001225

CCC[n+]1ccn(CC)c1.O=S(=O)([N-]S(=O)(=O)C(F)(F)F)C(F)(F)F
Conditions | vapor or sublimation pressure [kPa]
463.58 K | 4.86e-05
465.61 K | 5.55e-05
467.59 K | 6.29e-05
469.6 K | 7.12e-05
471.62 K | 8.07e-05
473.62 K | 9.11e-05
475.62 K | 0.0001034
477.63 K | 0.0001172
479.56 K | 0.0001311
481.58 K | 0.0001487
483.6 K | 0.0001651
485.61 K | 0.0001872
487.62 K | 0.0002112
489.62 K | 0.0002364
